Measurements taken from US8343911B2, “Methods of inhibiting and treating bacterial biofilms by metal chelators” (University of Iowa Research Foundation, priority 2002, dated 2013).

Test system: P. aeruginosa biofilms
Test: Antimicrobial susceptibility of biofilms grown in rotating disk reactor (viable cell counts)
Assay type: cell-based
Settings: control biofilms grown without conalbumin, FIG. 5
Description: P. aeruginosa biofilms for susceptibility tests were grown in a rotating disk reactor. Fe-unsaturated conalbumin (Sigma Chemical Co.) was added to standard biofilm medium at indicated concentrations for the duration of biofilm growth. Discs and attached bacteria were then washed 3 times in distilled water, and treated for 4 h in 1 ml of H2O2 (Fisher Scientific) or tobramycin (Eli Lilly, Indianapolis, Ind.) at indicated concentrations. The treated discs were washed 3 times, and bacteria were removed and dispersed in 2 ml sterile PBS by homogenization (Brinkman Homogenizer, model 10/35). Viable cell numbers were enumerated by plate counting.

NC[C@H]1O[C@H](O[C@H]2[C@H](O)[C@@H](O[C@H]3O[C@H](CO)[C@@H](O)[C@H](N)[C@H]3O)[C@H](N)C[C@@H]2N)[C@H](N)C[C@@H]1O [tobramycin, reference compound]
effect on viability of control biofilms (1000 μg/ml tobramycin, 4 h of treatment): minimal effects on viability

OO [H2O2, reference compound]
effect on viability of control biofilms (500 mM H2O2, 4 h of treatment): minimal effects on viability
